This is an account of results in patent US20250113823A1, “Arthropod Control Compositions” (priority 2022, published 2025).

SMILES strings stand for the structures. Like-named read-outs stand apart in the source and are kept apart here.

The subject of assay [1] is Anopheles gambiae. Briefly: Warm Body assay, mosquito landings on treated warm body. It counts as in vivo. Particulars: for pest or weed control at 3.2 µg/mL: 0.0032 mg/mL (Table 5); for pest or weed control at 80 µg/mL: 0.08 mg/mL (Table 5); for pest or weed control at 2000 µg/mL: 2 mg/mL (Table 5); for repellence (no mosquito landing on the attractive stimulus): with at least one of the two concentrations 0.447% & 1% (Table 4). The procedure:
Anopheles gambiae is also a model organism as it is anthropophilic and transmits malaria.
The controlling effect according to the present invention was assessed using an adapted Warm Body assay as defined in Kröber T, Kessler S, Frei J, Bourquin M, Guerin P M. 2010. J Am Mosq Control Assoc. 26: 381-386. In this in-vitro assay the number of mosquito landing on a warm body, simulating an attractive host treated with the tested stimuli, was measured in order to assess the repellence effect.
On the sandblasted glass Petri dish covering the warm body (28.3 cm^2), 100 μL of the compounds diluted at different concentrations in ethanol was applied. The number of mosquito landing on the warm body was counted for each stimulus and pure ethanol (solvent) as control.

The test system of assay [2] is Aedes aegypti. Briefly: Free flying room assay, spatial repellence with human volunteer. It counts as in vivo. An excerpt: The goal of this large-scale test is to assess the propensity of stimulus released in the air to protect a human volunteer by limiting the mosquito presence in a protected space and the number of landing/biting. The protocol used to carry the test is following the guidelines indicated in WHO (2013; ISBN 978 92 4 150502 4).
A group of 50 Aedes aegypti female mosquitoes were introduced in one chamber of 25 m^3 one hour before the test started. The product was applied in the other chamber of 25 m^3 (“treated chamber”) and let evaporate for 30 minutes. The test started when the window separating the two chambers was opened in a tilt-on manner for another 30 minutes. Twenty minutes after the window was opened, a volunteer entered in the “treated chamber” and sat down for 10 minutes, exposing the forearm for the last 3 minutes to determine the probing activity (Protective Efficacy). Then, the connecting window was closed and the number of mosquitoes in each of the chambers was counted (Spatial Repellency). The negative controls were carried out following the same procedure but without the application of the stimulus. Three replicates of each treatment and of the negative control were conducted with three different volunteers.

For assay [3], the system named is Aedes aegypti. As to the kind of experiment: Warm Body assay, mosquito landings on treated warm body. It counts as in vivo. In a few lines: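 Compounds in ethanol (100 μL, various concentrations) were applied to a sandblasted glass dish covering the warm body (28.3 cm^2), with ethanol as control. Landings were counted automatically from 30 non-blood-fed, sugar-fed Aedes aegypti Rockefeller females aged 5–10 days, under 150 lux.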

For assay [4], the system named is Anopheles gambiae. As to the kind of experiment: Arm-in-cage test on human volunteers over time. Particulars: for Complete Protection Time (no confirmed landing) / Number of mosquitoes landing on the treated arm (test): arm treated with 20%. It is filed as in vivo.
The subject of a further assay is Ixodes ricinus. Briefly: Warm Plate assay, tick repellence. Particulars: Ixodes ricinus, read-out: Percentage of repellence of ticks Ixodes ricinus on the warm plate.
Setting [5] is: Anopheles gambiae, read-out: Percentage of repellence of mosquitoes Anopheles gambiae landing on the warm body.
The mark [6] stands for this setting: Anopheles gambiae, 0.178 mg/mL (Table 4), read-out: Percentage of repellence of mosquitoes Anopheles gambiae landing on the warm body.
The mark [7] stands for this setting: Anopheles gambiae, 0.178 mg/mL (Table 5), read-out: Percentage of repellence of mosquitoes Anopheles gambiae landing on the warm body.
Where [8] appears, read: Anopheles gambiae, 0.267 mg/mL (Table 4), read-out: Percentage of repellence of mosquitoes Anopheles gambiae landing on the warm body.
Where [9] appears, read: Anopheles gambiae, 0.267 mg/mL (Table 5), read-out: Percentage of repellence of mosquitoes Anopheles gambiae landing on the warm body.
Setting [10] is: Anopheles gambiae, 0.4 mg/mL (Table 4), read-out: Percentage of repellence of mosquitoes Anopheles gambiae landing on the warm body.
[11] abbreviates: Anopheles gambiae, 0.4 mg/mL (Table 5), read-out: Percentage of repellence of mosquitoes Anopheles gambiae landing on the warm body.
[12] abbreviates: Anopheles gambiae, 4.47 mg/mL (Table 4), read-out: Percentage of repellence of mosquitoes Anopheles gambiae landing on the warm body.
Setting [13] is: Anopheles gambiae, 4.47 mg/mL (Table 5), read-out: Percentage of repellence of mosquitoes Anopheles gambiae landing on the warm body.
The mark [14] stands for this setting: Anopheles gambiae, 10 mg/mL (Table 4), read-out: Percentage of repellence of mosquitoes Anopheles gambiae landing on the warm body.
Where [15] appears, read: Anopheles gambiae, 10 mg/mL (Table 5), read-out: Percentage of repellence of mosquitoes Anopheles gambiae landing on the warm body.
[16] abbreviates: Aedes aegypti, 0.016 mg/mL (Table 3), read-out: Percentage of repellence of mosquitoes Aedes aegypti landing on the warm body.
The mark [17] stands for this setting: Aedes aegypti, 0.4 mg/mL (Table 3), read-out: Percentage of repellence of mosquitoes Aedes aegypti landing on the warm body.
Setting [18] is: Aedes aegypti, 10 mg/mL (Table 3), read-out: Percentage of repellence of mosquitoes Aedes aegypti landing on the warm body.

Regarding `COc1cc(C)cc(OC)c1OC` [compound 1967, 3,4,5-trimethoxytoluene], the pest or weed control at 3.2 µg/mL in the assay on Anopheles gambiae [1] (setting [5]) stood at 0%. For the same molecule, the pest or weed control at 16 µg/mL amounted to 0% with Anopheles gambiae [1] (Anopheles gambiae, 0.016 mg/mL (Table 5), read-out: Percentage of repellence of mosquitoes Anopheles gambiae landing on the warm body) and 0% with Aedes aegypti [3] (setting [16]). The pest or weed control at 80 µg/mL in the assay with Anopheles gambiae [1] (setting [5]) was 1%. The pest or weed control at 178 µg/mL came out at 65% in the assay on Anopheles gambiae [1] (setting [6]) and 59% with Anopheles gambiae [1] (setting [7]). In addition, the pest or weed control at 267 µg/mL in the assay with Anopheles gambiae [1] (setting [8]) came out at 78%; with Anopheles gambiae [1] (setting [9]) it was 82%. The pest or weed control at 400 µg/mL with Anopheles gambiae [1] (setting [10]) stood at 84%; in the assay with Anopheles gambiae [1] (setting [11]), 71%; with Aedes aegypti [3] (setting [17]), 12%. The pest or weed control at 2000 µg/mL with Anopheles gambiae [1] (setting [5]) was 100%. Also, the pest or weed control at 4470 µg/mL with Anopheles gambiae [1] (setting [12]) and in the assay with Anopheles gambiae [1] (setting [13]) was 100% in each case. In addition, the pest or weed control at 10000 µg/mL was found to be 100% with Anopheles gambiae [1] (setting [14]), 100% in the assay on Anopheles gambiae [1] (setting [15]) and 81% in the assay on Aedes aegypti [3] (setting [18]). For the same molecule, the repellence with Anopheles gambiae [1] (concentration ≥0.0178% (Table 5)) is given as > 50%. Also, in the assay on Anopheles gambiae [1] (concentrations ≥0.2% (Table 5)), the landing result is “no landing at all”. In the assay on Anopheles gambiae [1] (lowest concentration tested, 0.0178% (Table 4)), the percentage of repellence result is recorded as “above 60%”. Also, in the assay on Anopheles gambiae [1], the “repellence (no mosquito landing on the attractive stimulus)” value is 100%. Besides, the “mosquitoes landed on the volunteer” value in the assay on Aedes aegypti [2] (in 3 minutes, negative control 60.7±2.5 landings) came to 22.3±3.2. Further, in the assay on Aedes aegypti [2] (large scale assay, 25 m3 chambers, compound released in the air), the “Spatial Repellence” value stood at 47.3 ± 3.8%. The molecule further registered a Protective efficacy with Aedes aegypti [2] (large scale assay, probing on volunteer forearm, 3 minutes) of 63.1 ± 5.5%. Further, the “mosquito entered the treated chamber” value in the assay with Aedes aegypti [2] (negative control 82.5±3.7%) was 43.5±3.2%.

Turning to `CCCCN(CCC(=O)OCC)C(C)=O` [IR3535, ethyl butylacetylaminopropionate, reference compound], the “Complete Protection Time (no confirmed landing)” value with Anopheles gambiae [4] is on record as 0.17 h.

On to `Cc1ccc2c(c1)OCC(=O)CO2` [compound 1228, 7-methyl-1,5-benzodioxepin-3-one], for which the “Complete Protection Time (no confirmed landing)” value in the assay on Anopheles gambiae [4] turned out to be 1.33 h. Besides, the “Number of mosquitoes landing on the treated arm (test)” value in the assay on Anopheles gambiae [4] (30 min post-application) is 0; in the assay with Anopheles gambiae [4] (1 h post-application), 0; with Anopheles gambiae [4] (2 h post-application) it was 3.0 ± 1.8; in the assay with Anopheles gambiae [4] (3 h post-application), 7.5 ± 1.1. Besides, the protection in the assay with Anopheles gambiae [4] (at 3 h, on two volunteers) came to 79.64%. In the assay on Anopheles gambiae [1] (setting [5]), the pest or weed control at 3.2 µg/mL came to 0%. Also, the pest or weed control at 80 µg/mL in the assay with Anopheles gambiae [1] (setting [5]) was determined as 0%. Besides, the pest or weed control at 178 µg/mL in the assay with Anopheles gambiae [1] (setting [6]) and in the assay with Anopheles gambiae [1] (setting [7]) was 48% throughout. Further, the pest or weed control at 267 µg/mL in the assay with Anopheles gambiae [1] (setting [8]) was 85%; in the assay on Anopheles gambiae [1] (setting [9]), 71%. The figures for the pest or weed control at 400 µg/mL in the assay with Anopheles gambiae [1] (setting [10]), in the assay with Anopheles gambiae [1] (setting [11]) and in the assay on Aedes aegypti [3] (setting [17]) were 65%, 66% and 74%, respectively. For the same molecule, the pest or weed control at 598 µg/mL with Anopheles gambiae [1] (Anopheles gambiae, 0.598 mg/mL (Table 5), read-out: Percentage of repellence of mosquitoes Anopheles gambiae landing on the warm body) was 69%. Further, the pest or weed control at 2000 µg/mL in the assay on Anopheles gambiae [1] (setting [5]) came to 92%. Further, the pest or weed control at 4470 µg/mL in the assay with Anopheles gambiae [1] (setting [12]) and in the assay on Anopheles gambiae [1] (setting [13]) was 92% throughout. For the same molecule, the pest or weed control at 10000 µg/mL in the assay with Anopheles gambiae [1] (setting [14]), with Anopheles gambiae [1] (setting [15]) and in the assay with Aedes aegypti [3] (setting [18]) was 100% in each case. For the same molecule, the “repellence (no mosquito landing on the attractive stimulus)” value in the assay with Anopheles gambiae [1] turned out to be 100%. Moreover, the pest or weed control at 16 µg/mL in the assay on Aedes aegypti [3] (setting [16]) was determined as 54%. Also, in the assay on Aedes aegypti [3] (Aedes aegypti, highest tested concentration, 1% (Table 3), read-out: repellence), the pest or weed control at 1 % is > 90%. Also, the pest or weed control at 0.0016 % in the assay with Aedes aegypti [3] (Aedes aegypti, lowest concentration of 0.0016% (Table 3), read-out: reduce the number of mosquito landings) is > 50%. In addition, the “mosquito landing within the two minutes of experiments” value with Aedes aegypti [3] (highest tested concentration, 1% (Table 3)) is given as “protect the attractive stimulus for any mosquito landing”.

In the case of `COC(=O)Oc1ccc(C)cc1OC` [compound 1141, (2-methoxy-4-methylphenyl) methyl carbonate], the pest or weed control at 400 µg/mL came out at 8.3% in the assay on Ixodes ricinus and 72% with Aedes aegypti [3] (Aedes aegypti, 0.4 mg/mL (Table 1), read-out: Percentage of repellence of mosquitoes Aedes aegypti landing on the warm body). The pest or weed control at 2000 µg/mL in the assay on Ixodes ricinus is 58.3%; with Aedes aegypti [3] (Aedes aegypti, 2 mg/mL (Table 1), read-out: Percentage of repellence of mosquitoes Aedes aegypti landing on the warm body) it was 89%. For the same molecule, the pest or weed control at 10000 µg/mL is 66.7% in the assay on Ixodes ricinus; 69% in the assay with Anopheles gambiae [1] (setting [14]); 91% in the assay on Aedes aegypti [3] (Aedes aegypti, 10 mg/mL (Table 1), read-out: Percentage of repellence of mosquitoes Aedes aegypti landing on the warm body). In addition, the pest or weed control at 4470 µg/mL in the assay on Anopheles gambiae [1] (setting [12]) stood at 100%; in the assay on Aedes aegypti [3] (Aedes aegypti, 4.47 mg/mL (Table 1), read-out: Percentage of repellence of mosquitoes Aedes aegypti landing on the warm body), 87%. For the same molecule, the “repellence (no mosquito landing on the attractive stimulus)” value with Anopheles gambiae [1] was 100%. Moreover, the pest or weed control at 3.2 µg/mL with Aedes aegypti [3] (Aedes aegypti, 0.0032 mg/mL (Table 1), read-out: Percentage of repellence of mosquitoes Aedes aegypti landing on the warm body) turned out to be 24%. Further, the pest or weed control at 7.1 µg/mL in the assay with Aedes aegypti [3] (Aedes aegypti, 0.0071 mg/mL (Table 1), read-out: Percentage of repellence of mosquitoes Aedes aegypti landing on the warm body) is 39%. For the same molecule, in the assay with Aedes aegypti [3] (Aedes aegypti, 0.016 mg/mL (Table 1), read-out: Percentage of repellence of mosquitoes Aedes aegypti landing on the warm body), the pest or weed control at 16 µg/mL is 17%. Further, the pest or weed control at 35.7 µg/mL in the assay with Aedes aegypti [3] (Aedes aegypti, 0.0357 mg/mL (Table 1), read-out: Percentage of repellence of mosquitoes Aedes aegypti landing on the warm body) amounted to 13%. Also, in the assay with Aedes aegypti [3] (Aedes aegypti, 0.053 mg/mL (Table 1), read-out: Percentage of repellence of mosquitoes Aedes aegypti landing on the warm body), the pest or weed control at 53 µg/mL worked out at 50%. For the same molecule, the pest or weed control at 80 µg/mL with Aedes aegypti [3] (Aedes aegypti, 0.08 mg/mL (Table 1), read-out: Percentage of repellence of mosquitoes Aedes aegypti landing on the warm body) turned out to be 39%. In addition, the pest or weed control at 178 µg/mL in the assay with Aedes aegypti [3] (Aedes aegypti, 0.178 mg/mL (Table 1), read-out: Percentage of repellence of mosquitoes Aedes aegypti landing on the warm body) is 67%. The pest or weed control at 890 µg/mL with Aedes aegypti [3] (Aedes aegypti, 0.89 mg/mL (Table 1), read-out: Percentage of repellence of mosquitoes Aedes aegypti landing on the warm body) was found to be 98%.
